Measurements: EP4650353A1 (Shanghai Institute of Materia Medica, Chinese Academy of …, priority 2023, dated 2024)
pEC50, pIC50: −log10 of the molar value.

Columns and labels:
β-arrestin 1 = assay: NanoBiT recruitment of β-arrestin 1 by GLP-1R in HEK293 cells; assay type: cell-based; conditions: Homo sapiens, read-out: maximum agonistic effect (Emax) recruiting β-arrestin 1;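 further: 100% equals the maximal response of endogenous GLP-1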
Source text: (§1) The Promega NanoBiT protein-protein reaction system was used to detect the recruitment of β-arrestin 1 and β-arrestin 2 by GLP-1R. The NanoBit Protein-Protein Reaction System was a dual-subunit system based on NanoLuc luciferase that could be used to detect protein-protein interactions in cells. The LgBiT (17.6 kDa) and SmBiT (11 amino acids) subunits were fused to the proteins of interest, respectively. When the proteins of interest interact, the two subunits came into close proximity to form an enzyme with catalytic activity, which could catalyze the luminescence of the luciferase substrate. Firstly, the human GLP-1R gene was connected to the N-terminus of LgBit, the β-arrestin 1/2 gene was cloned to the C-terminus of SmBit, and the fusion protein was introduced into the pcDNA3.0 vector to construct plasmids expressing hGLP-1R-LgBit and SmBit-β-arrestin 1/2 fusion proteins. The hGLP-1R-LgBit plasmid and SmBit-β-arrestin 1 (or SmBit-β-arrestin 2) plasmid were co-transfected into HEK293 cells at a ratio of 1 µg plasmid/2×10^6 cells. Immediately after transfection, the cells were added to a 96-well white-bottom plate at a density of 4×10^5 cells/well, and the cells were cultured in an incubator (37°C, 5% CO2) for 20 hours.
(§2) After 20 hours, the liquid in the wells was discarded, 40 µL of fresh culture medium (DMEM+0.2% BSA, m/v) was added first, and then 10 µL of Nano-Glo Live Cell detection solution (Promega, #N2011) was added, and then the cells were placed in an incubator and incubated for 10 minutes. The compound was dissolved in DMSO and prepared into a storage solution with a concentration of 10mM. The experiment started with a concentration of 100µM. […] After the cells were incubated for 10 min, 25 µL of culture medium containing the compound was added to each well and incubated at room temperature for 5 min. The fluorescence signal was then detected using an Envision 2104 multi-function microplate reader (PerkinElmer). All samples were tested in triplicate, and the fluorescence signal ratio and the corresponding compound concentration were analyzed using GraphPad Prism 8 software.

β-arrestin 2 = assay: NanoBiT recruitment of β-arrestin 2 by GLP-1R in HEK293 cells; assay type: cell-based; conditions: Homo sapiens, read-out: maximum agonistic effect (Emax) recruiting β-arrestin 2;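 further: 100% equals the maximal response of endogenous GLP-1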
Source text: as §1, §2

human GLP-1 receptor = target: T1, human GLP-1 receptor (Homo sapiens, UniProt P43220); assay: GLP-1 receptor-mediated agonist activity: cAMP level in hGLP-1R/HEK293 cell line (HTRF); assay type: cell-based; conditions: cAMP levels in hGLP-1R/HEK293 cell line; Table 1; read-out: determined EC50
T1 construct: HA (N); expressed in transfected cells

hERG potassium channels = hERG potassium channels (Homo sapiens, UniProt Q12809); assay: cell-based
Experimental: CHO cells expressing hERG protein were cultured in 175 cm^2 culture flasks. When the cell density grew to 60-80%, the culture medium was removed, the cells were washed once with 7 mL PBS, and then 3 mL Detachin was added for digestion. After digestion was complete, 7 mL of culture medium was added to neutralize, then centrifuged. The supernatant was aspirated, and 5 mL of culture medium was added to resuspend to ensure that the cell density is 2-5×10^6/mL.
Both the single-cell high-impedance sealing and whole-cell mode formation processes were automatically completed by the Qpatch instrument. After obtaining the whole-cell recording mode, the cell was clamped at -80 mV. Before a 5-second +20 mV depolarizing stimulus was given, a 50-ms -50 mV pre-voltage was given, and then the cell was repolarized to -50 mV for 5 seconds and then returned to -80 mV. This voltage stimulation was applied every 15 seconds. After recording for 2 minutes, the extracellular solution was recorded for 2 minutes. Then the drug administration process began. The compound concentration started from the lowest tested concentration. Each tested concentration was given for 2 minutes. […] At least three cells were tested for each concentration (n≥3).
The compound stock solution was diluted with extracellular fluid, 5 µL of 20 mM compound stock solution was added to 2495 µL extracellular fluid, diluted 500 times to 40 µM, and then serially diluted 3 times in extracellular fluid containing 0.2% DMSO (v/v) to obtain the final concentration to be tested.
The experimental data were analyzed by XLFit software.

[1] = system: hGLP-1 receptor knock-in mice; assay: Oral glucose tolerance test in mice; assay type: in vivo
Experimental: (§3) Genetically engineered hGLP-1R gene knock-in mice, male, 8-10 weeks old, specific pathogen free (SPF) grade, were purchased from Biocytogen Jiangsu Gene Biotechnology Co., Ltd. All experimental animals were housed in the SPF-level environment of the National Compound Sample Library animal room, with a temperature of 24±2°C, a relative humidity of 40-60%RH, an air cleanliness level of 7, and a day and night light-dark cycle of 12h/12h; they were continuously supplied with cobalt-60 radiation-sterilized complete mouse granular feed (Shanghai Shilin Biotechnology Co., Ltd., maintenance feed for rats and mice), and were allowed to drink tap water (sterilized with high-pressure steam) without interruption, and were allowed to drink it freely. The cages were transparent polyetherimide cages (Suzhou Fengshi Experimental Animal Equipment Co., Ltd., CP-8 mouse cages), and the bedding was corn cobs (Tezhou Gumei Agricultural Technology Co., Ltd., used after high-pressure steam sterilization). There were 3-5 animals in each cage, and the cage card indicated the IACUC approval number, experiment number, experiment start time, person in charge, experimenter, animal source, group and animal number. The purchased mice were adapted to this breeding environment for at least 7 days before being used in experiments. The animal use methods in this study were approved by the IACUC Committee of the Shanghai Institute of Materia Medica.
60 minutes after oral administration, blood glucose was measured again as zero-point blood glucose. Then, 2 g/kg of sugar was orally administered, and blood glucose was measured using a blood glucose meter 15 minutes, 30 minutes, 60 minutes, and 90 minutes after sugar administration. In order to explore the effect of long-term administration on glucose tolerance, 2 g/kg of sugar was orally administered again […] the administration of the compound, and the blood glucose changes were measured at 180 min, 195 min, 210 min, 240 min, and 270 min.

hGLP-1R KI mice = assay: Diet inhibition by Tris salts (food intake after single oral dose); assay type: in vivo; conditions: 30 mg/kg; for duration of the food intake reducing effect / food intake: Tris salt, single oral administration
Experimental: Mouse model: hGLP-1R KI mice, 8 female mice per experimental group.
Experimental procedure: Mice were separated into cages and fasted 6 hours in advance, and were given drugs by oral gavage at the beginning of the night cycle (7:00 PM). The weight of food in each cage was weighed at 0, 2.5, 5, 12 (7:00 AM at the beginning of the day cycle), and 24 hours after drug administration to calculate the food intake of mice.

[2] = system: hGLP-1 receptor knock-in mice; assay: Long-term administration in high-fat diet fed hGLP-1R mice for weight loss; assay type: in vivo; conditions: ammonium salt
Experimental: as §3
The mice were weighed every day, and 24 hours after the last administration, the body fat and muscle content of the mice were detected using a Bruker desktop nuclear magnetic resonance spectrometer (model LF90II). • (4) Experimental results

hERG potassium channels, sequence (Q12809 whole entry): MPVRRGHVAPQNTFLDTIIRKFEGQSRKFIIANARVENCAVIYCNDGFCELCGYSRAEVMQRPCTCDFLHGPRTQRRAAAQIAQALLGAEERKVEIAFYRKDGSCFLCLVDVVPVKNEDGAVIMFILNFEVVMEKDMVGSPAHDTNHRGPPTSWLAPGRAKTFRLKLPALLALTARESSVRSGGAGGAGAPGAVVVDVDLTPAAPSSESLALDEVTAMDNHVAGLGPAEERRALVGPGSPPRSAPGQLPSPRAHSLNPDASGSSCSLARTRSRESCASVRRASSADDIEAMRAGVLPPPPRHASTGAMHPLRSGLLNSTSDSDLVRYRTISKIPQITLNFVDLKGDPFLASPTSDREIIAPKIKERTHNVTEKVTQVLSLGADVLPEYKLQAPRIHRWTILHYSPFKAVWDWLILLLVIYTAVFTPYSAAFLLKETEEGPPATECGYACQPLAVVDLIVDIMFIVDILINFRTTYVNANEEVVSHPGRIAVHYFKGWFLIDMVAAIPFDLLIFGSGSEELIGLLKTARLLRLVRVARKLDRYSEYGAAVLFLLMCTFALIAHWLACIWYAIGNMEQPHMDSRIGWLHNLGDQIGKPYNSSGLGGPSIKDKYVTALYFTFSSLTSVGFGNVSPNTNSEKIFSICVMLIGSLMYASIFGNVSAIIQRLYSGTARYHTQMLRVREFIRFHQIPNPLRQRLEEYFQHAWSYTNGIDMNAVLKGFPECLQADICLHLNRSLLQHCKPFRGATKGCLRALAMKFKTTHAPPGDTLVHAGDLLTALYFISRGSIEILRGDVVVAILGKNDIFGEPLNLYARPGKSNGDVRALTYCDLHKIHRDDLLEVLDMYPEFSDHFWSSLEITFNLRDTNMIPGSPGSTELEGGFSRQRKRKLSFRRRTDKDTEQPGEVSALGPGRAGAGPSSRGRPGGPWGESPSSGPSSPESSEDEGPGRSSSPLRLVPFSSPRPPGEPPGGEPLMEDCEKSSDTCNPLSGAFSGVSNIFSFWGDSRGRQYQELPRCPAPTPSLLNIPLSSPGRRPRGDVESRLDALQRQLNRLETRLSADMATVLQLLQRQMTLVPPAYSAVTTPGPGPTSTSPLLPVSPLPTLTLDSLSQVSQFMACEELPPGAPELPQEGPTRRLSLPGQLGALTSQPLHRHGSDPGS
T1 sequence (P43220 24-463): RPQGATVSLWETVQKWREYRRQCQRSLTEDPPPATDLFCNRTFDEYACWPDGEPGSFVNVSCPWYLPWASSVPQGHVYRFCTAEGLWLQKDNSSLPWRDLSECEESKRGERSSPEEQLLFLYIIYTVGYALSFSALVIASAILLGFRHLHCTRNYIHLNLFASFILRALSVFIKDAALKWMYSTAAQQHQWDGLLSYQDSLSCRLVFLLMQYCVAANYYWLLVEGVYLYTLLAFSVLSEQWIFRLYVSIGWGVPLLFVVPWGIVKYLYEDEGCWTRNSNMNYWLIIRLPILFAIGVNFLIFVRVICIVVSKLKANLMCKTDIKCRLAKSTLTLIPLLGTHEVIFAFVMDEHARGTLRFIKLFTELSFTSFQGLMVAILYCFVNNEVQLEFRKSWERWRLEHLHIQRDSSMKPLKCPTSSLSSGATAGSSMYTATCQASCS

Work on `O=C(O)c1cc(F)c2nc(CN3CCN(c4cccc(OCc5ccc(Cl)cc5F)n4)C=N3)n(C[C@@H]3CCO3)c2c1` [CN2022114139828 , Compound 2, reference compound] yielded an Emax (β-arrestin 1) of 75 to 80% and an Emax (β-arrestin 2) of 75 to 80%.

`CCCOc1cc(C(=O)O)cc2c1nc(CN1CCC(c3cccc(OCc4ccc(C#N)cc4F)n3)CC1)n2C[C@@H]1CCO1` [Compound 3, (S)-2-((4-(6-((4-cyano-2-fluorobenzyl)oxy)pyridin-2-yl)piperidin-1-yl)methyl)-1-(oxetan-2-ylmethyl)-4-propoxy-1H-benzo[d]imidazole-6-carboxylic acid] was tested, and the pEC50 (human GLP-1 receptor) was 11.19, the Emax (β-arrestin 1) was 30 to 50% and the Emax (β-arrestin 2) was 30 to 50%.

Work on `COc1cc(C#N)ccc1COc1cccc(C2CCN(Cc3nc4c(OC)cc(C(=O)O)cc4n3C[C@@H]3CCO3)CC2)n1` [Compound 4, (S)-2-((4-(6-((4-cyano-2-methoxybenzyl)oxy)pyridin-2-yl)piperidin-1-yl)methyl)-4-methoxy-1-(oxetan-2-ylmethyl)-1H-benzo[d]imidazole-6-carboxylic acid] yielded an Emax (β-arrestin 1) of 30 to 50% and an Emax (β-arrestin 2) of 30 to 50%.

`COc1cc(Cl)ccc1COc1cccc(N2C=NN(Cc3nc4c(OC)cc(C(=O)O)cc4n3C[C@@H]3CCO3)CC2)n1` [Compound 20, (S)-2-((4-(6-((4-chloro-2-methoxybenzyl)oxy)pyridin-2-yl)-5,6-dihydro-1,2,4-triazin-1(4H)-yl)methyl)-4-methoxy-1-(oxetan-2-ylmethyl)-1H-benzo[d]imidazole-6-carboxylic acid] was tested, and the pIC50 (hERG potassium channels) was < 4.40, the Emax (β-arrestin 1) was 30 to 50% and the “effect compared with positive control PF-06882961 ammonium salt at the same dose” value ([1]; 1 mg/kg oral, oral glucose tolerance test) was “better than the positive control PF-06882961 ammonium salt”. For the same compound, the “blood glucose area under the curve” value ([1]; ammonium salt, orally administered at 1 mg/kg, AUC(0-90), vs blank control) was “significantly reduce”, the blood glucose concentration ([1]; ammonium salt, orally administered at 1 mg/kg, vs blank control) was “significantly reduce” and the Emax (β-arrestin 2) was 30 to 50%.

For `[2H]C([2H])([2H])C([2H])([2H])Oc1cc(C(=O)O)cc2c1nc(CN1CCN(c3cccc4c3OC(C)(c3ccc(Cl)cn3)O4)C=N1)n2C[C@@H]1CCO1` (stereo partly drawn) [Compound 73, 2-((4-(2-(5-chloropyridin-2-yl)-2-methylbenzo[d][1,3]dioxol-4-yl)-5,6-dihydro-1,2,4-triazin-1(4H)-yl)methyl)-4-(ethoxy-d5)-1-(((S)-oxetan-2-yl)methyl)-1H-benzo[d]imidazole-6-carboxylic acid], the pIC50 (hERG potassium channels) was < 4.40 and the pEC50 (human GLP-1 receptor) was 11.08.

For `[2H]C([2H])([2H])C([2H])([2H])Oc1cc(C(=O)O)cc2c1nc(CN1CCN(c3cccc4c3OC(C)(c3ccc(Cl)cc3F)O4)C=N1)n2C[C@@H]1CCO1` (stereo partly drawn) [Compound 76, 2-((4-(2-(4-chloro-2-fluorophenyl)-2-methylbenzo[d][1,3]dioxol-4-yl)-5,6-dihydro-1,2,4-triazin-1(4H)-yl)methyl)-4-(ethoxy-d5)-1-(((S)-oxetan-2-yl)methyl)-1H-benzo[d]imidazole-6-carboxylic acid], the pIC50 (hERG potassium channels) was < 4.40 and the pEC50 (human GLP-1 receptor) was 11.35.

In the case of `CCOc1cc(C(=O)O)cc2c1nc(CN1CCN(c3cccc4c3OC(C)(c3ccc(C(F)(F)F)cc3F)O4)C=N1)n2C[C@@H]1CCO1` (stereo partly drawn) [Compound 81, 4-ethoxy-2-((4-(2-(2-fluoro-4-(trifluoromethyl)phenyl)-2-methylbenzo[d][1,3]dioxol-4-yl)-5,6-dihydro-1,2,4-triazin-1(4H)-yl)methyl)-1-(((S)-oxetan-2-yl)methyl)-1H-benzo[d]imidazole-6-carboxylic acid], the pIC50 (hERG potassium channels) was < 4.40 and the pEC50 (human GLP-1 receptor) was 11.08.

In the case of `CCOc1cc(C(=O)O)cc2c1nc(CN1CCN(c3cccc4c3O[C@@](C)(c3ccc(C(F)(F)F)cc3F)O4)C=N1)n2C[C@@H]1CCO1` [Compound 81-1, 4-ethoxy-2-((4-((S)-2-(2-fluoro-4-(trifluoromethyl)phenyl)-2-methylbenzo[d][1,3]dioxol-4-yl)-5,6-dihydro-1,2,4-triazin-1(4H)-yl)methyl)-1-(((S)-oxetan-2-yl)methyl)-1H-benzo[d]imidazole-6-carboxylic acid], the pEC50 (human GLP-1 receptor) was 11.74, the “inhibitory effect on eating compared with Tris salt of positive control PF-06882961 at the same dose” value (hGLP-1R KI mice; at 5, 12 and 24 hours) was “significantly better than” and the “duration of the food intake reducing effect” value (hGLP-1R KI mice) was 24 h. For the same compound, the food intake (hGLP-1R KI mice) was “significantly reduce the food intake”.

With `[2H]C([2H])([2H])C([2H])([2H])Oc1cc(C(=O)O)cc2c1nc(CN1CCN(c3cccc4c3O[C@@](C)(c3ccc(C(F)(F)F)cc3F)O4)C=N1)n2C[C@@H]1CCO1` [Compound 82-1, 4-(ethoxy-d5)-2-((4-((S)-2-(2-fluoro-4-(trifluoromethyl)phenyl)-2-methylbenzo[d][1,3]dioxol-4-yl)-5,6-dihydro-1,2,4-triazin-1(4H)-yl)methyl)-1-(((S)-oxetan-2-yl)methyl)-1H-benzo[d]imidazole-6-carboxylic acid] the pEC50 (human GLP-1 receptor) was 11.29, the “duration of the food intake reducing effect” value (hGLP-1R KI mice) was 24 h and the food intake (hGLP-1R KI mice) was “significantly reduce the food intake”.

With `[2H]C([2H])([2H])C([2H])([2H])Oc1cc(C(=O)O)cc2c1nc(CN1CCN(c3cccc4c3OC(C)(c3ccc(C(F)(F)F)cc3F)O4)C=N1)n2C[C@@H]1CCO1` (some centres unmarked) [Compound 82] the pIC50 (hERG potassium channels) was < 4.40 and the pEC50 (human GLP-1 receptor) was 10.88.

For `N#Cc1ccc(COc2cccc(C3CCN(Cc4nc5ccc(C(=O)O)cc5n4C[C@@H]4CCO4)CC3)n2)c(F)c1` [PF-06882961, reference compound], the Emax (β-arrestin 1) was 75 to 80%, the “weight gain of HFD-fed mice” value ([2]; 30 mg/kg by gavage once a day, 15 days) was “effectively inhibit the weight gain” and the “reduce body weight compared with the blank control group” value ([2]; 30 mg/kg once a day, after 15 days of administration, HFD) was 10.2%. For the same compound, the Emax (β-arrestin 2) was 75 to 80%.
